“And” between values parts separate entries of the source, which are not always exact repeats. Identical values can stand only once.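 1) Cells in 96-well plates. 2) Compound, 48 h, 5 concentrations. 3) Linear interpolation between surrounding doses. 4) Unreached endpoint = highest concentration. GI50 is the concentration that inhibits growth by half.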 The source made the active and inactive calls. Rule as the data show it: active = GI50 up to about 1.1 µM and inactive = higher.
Columns and labels:
Test in all cases: NCI-60 cell line screen, 48 h
[1] = tested on: 786-0
[2] = tested on: CCRF-CEM
[3] = tested on: MDA-MB-435
[4] = tested on: SF-268
[5] = tested on: K562
[6] = tested on: T47D
[7] = tested on: BT-549
[8] = tested on: MCF7
[9] = tested on: UACC-62
[10] = tested on: SF-539
[11] = tested on: SW-620
[12] = tested on: HOP-62
[13] = tested on: TK-10
[14] = tested on: NCI-H226
[15] = tested on: OVCAR-5
[16] = tested on: CAKI-1
[17] = tested on: KM12
[18] = tested on: SR
[19] = tested on: RXF 393
[20] = tested on: HOP-92
[21] = tested on: SN12C
[22] = tested on: HT-29
[23] = tested on: SNB-75
[24] = tested on: NCI-H522
[25] = tested on: M14
[26] = tested on: HCT-116
[27] = tested on: OVCAR-3
[28] = tested on: OVCAR-8
[29] = tested on: SF-295
[30] = tested on: EKVX
[31] = tested on: UACC-257
[32] = tested on: MDA-MB-231
[33] = tested on: OVCAR-4
[34] = tested on: PC-3
[35] = tested on: SK-MEL-2
[36] = tested on: RPMI-8226
[37] = tested on: A549
[38] = tested on: MOLT-4
[39] = tested on: SK-MEL-5
[40] = tested on: COLO 205
[41] = tested on: SK-OV-3
[42] = tested on: DU-145
[43] = tested on: U-251
[44] = tested on: NCI-H23
[45] = tested on: A498
[46] = tested on: Malme-3M
[47] = tested on: MDA-N
[48] = tested on: HCC 2998
[49] = tested on: ACHN
[50] = tested on: SNB-19
[51] = tested on: HL-60
[52] = tested on: NCI-H460
[53] = tested on: SK-MEL-28
[54] = tested on: NCI/ADR-RES
[55] = tested on: IGROV-1
[56] = tested on: HCT-15
[57] = tested on: LOX IMVI

SMILES: CC1(C)CCC2=C(O1)c1ccccc1C(=O)C2=O [LAPACHONE]
- GI50 [1]: 1.2 µM (inactive)
- GI50 [2]: 0.908 µM (active)
- GI50 [3]: 2.07 µM (inactive)
- GI50 [4]: 0.682 µM (active)
- GI50 [5]: 0.245 µM (active)
- GI50 [6]: 0.411 µM (active)
- GI50 [7]: 721 nM (active)
- GI50 [8]: 0.455 µM (active)
- GI50 [9]: 0.475 µM (active)
- GI50 [10]: 0.463 µM (active)
- GI50 [11]: 0.432 µM (active)
- GI50 [12]: 0.647 µM (active)
- GI50 [13]: 2.24 µM (inactive)
- GI50 [14]: 1.35 µM (inactive)
- GI50 [15]: 0.571 µM (active)
- GI50 [16]: 1.03 µM (active)
- GI50 [17]: 1.36 µM (inactive)
- GI50 [18]: 0.215 µM (active)
- GI50 [19]: 1.41 µM (inactive)
- GI50 [20]: 3.15 µM (inactive)
- GI50 [21]: 0.51 µM (active)
- GI50 [22]: 2.5 µM (inactive)
- GI50 [23]: 0.358 µM (active)
- GI50 [24]: 0.605 µM (active)
- GI50 [25]: 0.316 µM (active)
- GI50 [26]: 0.277 µM (active)
- GI50 [27]: 0.234 µM (active)
- GI50 [28]: 0.398 µM (active)
- GI50 [29]: 0.7 µM (active)
- GI50 [30]: 1.72 µM (inactive)
- GI50 [31]: 0.0938 µM (active)
- GI50 [32]: 0.507 µM (active)
- GI50 [33]: 684 nM (active)
- GI50 [34]: 0.847 µM (active)
- GI50 [35]: 1.42 µM (inactive)
- GI50 [36]: 0.284 µM (active)
- GI50 [37]: 0.753 µM (active)
- GI50 [38]: 0.708 µM (active)
- GI50 [39]: 0.272 µM (active)
- GI50 [40]: 1.91 µM (inactive)
- GI50 [41]: 1.85 µM (inactive)
- GI50 [42]: 0.64 µM (active)
- GI50 [43]: 0.337 µM (active)
- GI50 [44]: 427 nM (active)
- GI50 [45]: 5.42 µM (inactive)
- GI50 [46]: 0.427 µM (active)
- GI50 [47]: 0.2 µM (active)

SMILES: COC(=O)CCc1cc(OC)c2c(c1)C(C(=O)OC)C(c1ccc(OC)c(OC)c1)O2 (stereo unspecified)
- GI50 [6]: 24.8 µM (inactive)
- GI50 [7]: 22.6 µM (inactive) and 42.4 µM (inactive)
- GI50 [13]: > 100 µM (inactive) and > 91.4 µM (inactive)
- GI50 [48]: 60.5 µM (inactive)
- GI50 [15]: > 79.1 µM (inactive)
- GI50 [19]: 34.9 µM (inactive)
- GI50 [20]: > 95.7 µM (inactive)
- GI50 [21]: 62.4 µM (inactive)
- GI50 [49]: 59.2 µM (inactive)
- GI50 [22]: 5.32 µM (inactive)
- GI50 [23]: 10.6 µM (inactive)
- GI50 [30]: > 52.5 µM (inactive)
- GI50 [31]: > 100 µM (inactive)
- GI50 [33]: > 100 µM (inactive) and 58.5 µM (inactive)
- GI50 [44]: > 100 µM (inactive) and > 71 µM (inactive)

SMILES: C=CCCC1(O)C(O)C(CO)O[C@H](O[C@@]2(CO)OC(CO)C(O)C2O)C1O (stereo partly specified)
- GI50 [50]: > 100 µM (inactive)
- GI50 [51]: > 100 µM (inactive)
- GI50 [1]: > 100 µM (inactive)
- GI50 [2]: > 100 µM (inactive)
- GI50 [52]: > 100 µM (inactive)
- GI50 [3]: > 100 µM (inactive)
- GI50 [4]: > 100 µM (inactive)
- GI50 [53]: > 100 µM (inactive)
- GI50 [5]: > 100 µM (inactive)
- GI50 [7]: > 100000 nM (inactive)
- GI50 [8]: > 100 µM (inactive)
- GI50 [54]: > 100 µM (inactive)
- GI50 [10]: > 100 µM (inactive)
- GI50 [11]: > 100 µM (inactive)
- GI50 [12]: > 100 µM (inactive)
- GI50 [13]: > 100 µM (inactive)
- GI50 [14]: > 100 µM (inactive)
- GI50 [15]: > 100 µM (inactive)
- GI50 [16]: > 100 µM (inactive)
- GI50 [17]: > 100 µM (inactive)
- GI50 [18]: > 100 µM (inactive)
- GI50 [55]: > 100 µM (inactive)
- GI50 [20]: > 100 µM (inactive)
- GI50 [21]: > 100 µM (inactive)
- GI50 [49]: > 100 µM (inactive)
- GI50 [22]: > 100 µM (inactive)
- GI50 [23]: > 100 µM (inactive)
- GI50 [24]: > 100 µM (inactive)
- GI50 [25]: > 100 µM (inactive)
- GI50 [26]: > 100 µM (inactive)
- GI50 [56]: > 100 µM
- GI50 [28]: > 100 µM (inactive)
- GI50 [29]: > 100 µM (inactive)
- GI50 [30]: > 100 µM (inactive)
- GI50 [31]: > 100 µM (inactive)
- GI50 [32]: > 100 µM (inactive)
- GI50 [33]: > 100000 nM (inactive)
- GI50 [34]: > 100 µM (inactive)
- GI50 [35]: > 10 µM (inactive)
- GI50 [36]: > 100 µM (inactive)
- GI50 [37]: > 100 µM (inactive)
- GI50 [38]: > 100 µM (inactive)
- GI50 [39]: > 100 µM (inactive)
- GI50 [40]: > 100 µM (inactive)
- GI50 [42]: > 100 µM (inactive)
- GI50 [43]: > 100 µM (inactive)
- GI50 [44]: > 100000 nM (inactive)
- GI50 [57]: > 100 µM (inactive)
- GI50 [46]: > 100 µM (inactive)

Reference: ChEMBL document CHEMBL1201862, “PubChem BioAssay data set” (2004)
